In patent publication US5808139A (Ligand Pharmaceuticals Incorporated, priority 1994, dated 1998):
Entries after “also recorded” stand apart in the source; their conditions may differ.

Key:
[1] = biological target: T1, glucocorticoid receptor (Homo sapiens, UniProt P04150); test: Cross-reactivity, glucocorticoid receptor activation (agonist and antagonist); format: cell-based
T1 sequence (P04150 1-777): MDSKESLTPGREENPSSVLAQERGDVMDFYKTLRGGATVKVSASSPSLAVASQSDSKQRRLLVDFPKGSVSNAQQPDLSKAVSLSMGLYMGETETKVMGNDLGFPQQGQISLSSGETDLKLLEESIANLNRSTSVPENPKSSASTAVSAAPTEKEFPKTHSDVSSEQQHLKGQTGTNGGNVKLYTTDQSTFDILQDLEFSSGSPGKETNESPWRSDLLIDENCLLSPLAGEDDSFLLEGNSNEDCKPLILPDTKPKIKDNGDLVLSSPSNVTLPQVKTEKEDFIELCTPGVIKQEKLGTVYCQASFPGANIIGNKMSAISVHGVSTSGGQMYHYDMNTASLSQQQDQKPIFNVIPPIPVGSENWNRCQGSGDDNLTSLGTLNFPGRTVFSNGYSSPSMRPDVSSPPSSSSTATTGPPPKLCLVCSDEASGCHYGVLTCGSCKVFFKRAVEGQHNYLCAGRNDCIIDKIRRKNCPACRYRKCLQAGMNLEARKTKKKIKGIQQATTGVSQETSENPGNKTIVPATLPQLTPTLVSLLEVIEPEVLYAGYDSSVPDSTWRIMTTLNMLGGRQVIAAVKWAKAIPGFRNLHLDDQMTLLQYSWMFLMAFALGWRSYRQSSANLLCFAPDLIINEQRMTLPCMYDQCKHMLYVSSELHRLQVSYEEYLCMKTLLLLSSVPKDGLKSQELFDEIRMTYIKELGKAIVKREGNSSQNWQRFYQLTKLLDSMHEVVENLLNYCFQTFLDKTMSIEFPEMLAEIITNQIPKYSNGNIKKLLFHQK
Source text: This assay is described in further detail in U.S. Pat. Nos. 4,981,784 and 5,071,773, which are incorporated herein by reference. The co-transfection assay provides a method for identifying functional ligands (either agonists which mimic, or antagonists which inhibit, the effect of hormones) for ligand-responsive receptor proteins.
The co-transfection assay provides a mechanism to evaluate ability of a compound to function as an agonist or antagonist of the activity modulated by an intracellular receptor. The co-transfection assay mimics an in vivo system in the laboratory. In the co-transfection assay, a cloned gene for an intracellular receptor is introduced by transfection (a procedure to induce cells to take up foreign genes) into a background cell substantially devoid of endogenous intracellular receptors. This introduced gene directs the recipient cells to make the intracellular receptor protein. A second gene is also introduced (co-transfected) into the same cells in conjunction with the intracellular receptor gene. This second gene functions as a reporter for the transcription-modulating activity of the target intracellular receptor. The reporter acts as a surrogate for the products normally expressed by a gene under control of the target receptor and its natural hormone.
A preferred reporter gene is one which expresses the firefly enzyme luciferase. The co-transfection assay can detect small molecule agonists or antagonists of target intracellular receptors. Exposing the cells to an agonist ligand increases reporter activity in the transfected cells that can be conveniently measured, reflecting ligand-dependent, intracellular receptor-mediated increases in reporter transcription. To detect antagonists, the co-transfection assay is carried out in the presence of a constant concentration of an agonist known to induce a defined reporter signal. […]
Co-transfected cells are exposed to a medium to which is added the potential ligand that is being evaluated. […] Antagonist activity is evaluated by adding the candidate ligand and a known agonist to the co-transfected cells. […]

[2] = test system: T47D cells; test: Alkaline phosphatase activity in T47D cells (induction and its inhibition); format: cell-based, human; conditions: for Agonist activity, alkaline phosphatase induction: ligand alone, three days
Source text: The functional activities of the cyclocymopol analogues in the human breast cell line, T47D, were also investigated. T47D cells have proven to be a particularly useful model to investigate the molecular actions of sex steroids because they contain endogenous functional receptors for, and respond to, progestins, and their respective antagonists. Moreover, these cells contain exceptionally high titers of progesterone receptors and are exquisitely sensitive to the actions of progestins in a manner quite similar to their actions in normal and neoplastic mammary epithelial cells. In T47D cells, progestins induce de novo synthesis of a plasma-associated alkaline phosphatase, which has been reported to be similar, if not identical, to the alkaline phosphatase present in the normal breast and human milk. These tests were conducted according to the following illustrative example. […] For routine induction of alkaline phosphatase, cells were treated for three days with two media changes and harvested as described below. […] Nuclei were sedimented at 2500 rpm, and the supernatant was saved as cytosol. The protein content of the cytosol was assayed by the method of Bradford. Alkaline phosphatase activity was determined by incubating one volume of cell extract with three volumes of 1 mg/ml p-nitrophenol phosphate prepared in DEAM (1M diethanolamine, pH=9, containing 2 mM magnesium chloride) at room temperature for 20 min. At the end of the incubation time, the reaction was stopped with an equal volume of 1N NaOH. Ten standards of p-nitrophenol were prepared in DEAM buffer and absorbance was read at 405 nm. Alkaline phosphatase activity is expressed as pmol p-nitrophenol formed/min/mg protein.

Row | Agonist/antagonist activity with glucocorticoid receptor [1] | Compound | Inhibition of alkaline phosphatase induced by SO-54 and SO-51 ([2]; induction by SO-54 or SO-51, FIG. 11) | Agonist activity, alkaline phosphatase induction [2] | Inhibition of progesterone-stimulated alkaline phosphatase activity ([2]; 1.0 nM progesterone) | Inhibition of R5020-induced alkaline phosphatase activity ([2]; R5020-induced)
1 | significant activity | CC#C[C@]1(O)CC[C@H]2[C@@H]3CCC4=CC(=O)CCC4=C3[C@@H](c3ccc(N(C)C)cc3)C[C@@]21C [RU-486, reference compound] | blocked | – | – | –
2 | slight agonist activity | C=C1CC[C@@H](Br)C(C)(C)[C@@H]1Cc1cc(OC)c(Br)cc1OC(C)=O [SO-52] | – | very weak agonists | – | –
3 | neither agonist nor antagonist activity | C=C1CC[C@@H](Br)C(C)(C)[C@@H]1Cc1cc(OC)c(Br)cc1O [SO-53, (3R)-cyclocymopol monomethyl ether] | – | very weak agonists | attenuated this induction in a concentration-dependent manner; also recorded: attenuated the effects of progesterone in a concentration-dependant manner | effective antagonist of the progesterone mimic
